Test results from patent US5863944A, “Compounds and compositions for delivering active agents” (Emisphere Technologies, Inc., priority 1997, dated 1999).
≈ marks a conversion by molar mass, not a printed value.

Assay: Carrier properties: solubility
Assay type: physicochemical
Settings: for Solubility (appearance): 200 mg/mL

For `Nc1ccc(F)cc1C(=O)NCCCCCCCC(=O)O` [Compound 1, N-(2-Amino-5-fluorobenzoyl)-8-aminocaprylic Acid], the “Solubility (appearance)” value (pH = 8.7) was “slightly milky” and the solubility (pH 8.7) was 200 mg/mL (≈ 675 mM).

With `Nc1ccc(F)cc1C(=O)Nc1ccc(CCCC(=O)O)cc1` [Compound 2, 4-(N-(2-amino-5-fluorobenzoyl)-4-aminophenyl)butyric] the “Solubility (appearance)” value (pH = 8.44) was “milky suspension” and the solubility (pH 8.44) was 200 mg/mL (≈ 632 mM).

In the case of `O=C(O)CCCCCCCC(=O)Nc1cc(Cl)ccc1O` [Compound 3, 8-(2-hydroxy-5-chloroanilinocarbonyl)octanoic acid], the “Solubility (appearance)” value (pH = 8.28) is reported as “soluble” and the solubility (soluble at pH = 8.28) is reported as 200 mg/mL (≈ 637 mM).
